Source: patent US20190382320A1, “ENHANCED STABILITY OF UREASE INHIBITOR-CONTAINING COMPOSITIONS” (Koch Agronomic Services, LLC, priority 2017, published 2019)

Experiments:
[1] = Hydrolysis of NBPT adduct-containing compositions at varying pH (OPPTS 835.2120), LC-MS monitoring; format: physicochemical; conditions: pH=4, 50° C.
Experimental: NBPT adduct-containing compositions were prepared by a method similar to that described in Example 1, with the exception that acetonitrile, rather than N-methylpyrrolidone was used as the solvent and, after <20 wt. % of free NBPT remained (based on UPLC testing), the acetonitrile was evaporated. As such, the NBPT in the “adduct-containing composition” subjected to hydrolysis according to the method of Example 2 is initially partially in adduct form and partially in free form (i.e., the composition includes both NBPT-containing adduct and free NBPT).
The NBPT adduct-containing compositions were hydrolyzed in accordance with OPPTS 835.2120 guidelines (https://www.regulations.gov/document?D=EPA-HQ-OPPT-2009-0152-0009), which are incorporated herein by reference. Specifically, samples comprising the NBPT adducts were subjected to various pH conditions (pH=4, pH=7, and pH=9) to evaluate the hydrolysis profiles at these varying pH values at 50° C. for 5 days. Hydrolysis of the NBPT adduct-containing compositions (by evaluating total NBPT adduct concentration as well as free NBPT concentration (i.e., NBPT in non-adduct form)) was monitored at hourly-to-daily intervals by liquid chromatography-mass spectroscopy (LC-MS), with secondary detection via ultraviolet (UV) detection at 200 nm. […]

[2] = NBPT hydrolysis over time in acetonitrile; format: physicochemical; conditions: in acetonitrile (no hydrolysis conditions)
Excerpt: FIGS. 4A and 4B present data on a study of NBPT hydrolysis over time in acetonitrile. As shown, little change is observed over the course of the study.

For `CCCCNP(N)(N)=S` [free NBPT, N-(n-butyl) thiophosphoric triamide], the “amount of free NBPT in the composition” value ([1]; day 3) was “minimal”, the “amount of free NBPT in the composition” value ([1]; day 4) was “completely gone” and the “change of overall amount over the course of the study” value [2] was “not actively degraded”.
